Patent US9073940B2, “Tricyclic pyrazol amine derivatives” (MERCK SERONO SA, priority 2009, dated 2015)

System: 4 PI3K isoforms (Human recombinant GST-PI3K)
Test: PI3K scintillation proximity assay, best IC50 obtained with the four isoforms (alpha, beta, delta, gamma)
Type: biochemical
Details: best IC50 obtained with the four isoforms of PI3K; read-out: Best potency measured on the 4 PI3K isoforms

Structure (SMILES) | IC50 [nM]
COc1cccc2c1S(=O)(=O)Cc1c(C(=O)N3CCOCC3)nn([C@H]3CCCN(CCN4CCOCC4)C3)c1-2 (single isomer, unassigned) [Example 424, 6-methoxy-3-(morpholin-4-ylcarbonyl)-1-[1-(2-morpholin-4-ylethyl)piperidin-3-yl]-1,4-dihydrothiochromeno[4,3-c]pyrazole 5,5-dioxide] | 59
Cc1nnc(-c2cccc(-n3nc(C(=O)N4CCOCC4)c4c3-c3ccccc3S(=O)(=O)C4)c2)s1 [Example 183, 1-[3-(5-Methyl-1,3,4-thiadiazol-2-yl)phenyl]-3-(morpholin-4-ylcarbonyl)-1,4-dihydrothiochromeno[4,3-c]pyrazole 5,5-dioxide] | 661
COCc1noc(-c2cccc(-n3nc(C(=O)N4CCOCC4)c4c3-c3ccccc3S(=O)(=O)C4)c2)n1 [Example 214, 1-{3-[3-(Methoxymethyl)-1,2,4-oxadiazol-5-yl]phenyl)-3-(morpholin-4-ylcarbonyl)-1,4-dihydrothiochromeno[4,3-c]pyrazole 5,5-dioxide] | 4190
O=C(c1nn([C@H]2CCCN(C3CCOCC3)C2)c2c1CS(=O)(=O)c1ccccc1-2)N1CCOCC1 (stereo in doubt) [Example 374, 3-(morpholin-4-ylcarbonyl)-1-[1-(tetrahydro-2H-pyran-4-yl)piperidin-3-yl]-1,4-dihydrothiochromeno[4,3-c]pyrazole 5,5-dioxide] | 80
Cc1ccccc1-c1ccc(-n2nc(C(=O)N3CCOCC3)c3c2-c2ccccc2S(=O)(=O)C3)cc1 [Example 161, 1-(2′-Methylbiphenyl-4-yl)-3-(morpholin-4-ylcarbonyl)-1,4-dihydrothiochromeno[4,3-c]pyrazole 5,5-dioxide] | 6470
COc1ccc2c(c1)S(=O)(=O)Cc1c(C(=O)N3CCOCC3)nn([C@H]3CCCN(C4CCCOC4)C3)c1-2 (stereo in doubt) [Example 389, 7-methoxy-3-(morpholin-4-ylcarbonyl)-1-[1-(tetrahydro-2H-pyran-3-yl)piperidin-3-yl]-1,4-dihydrothiochromeno[4,3-c]pyrazole 5,5-dioxide] | 24
CC(=O)Nc1ccc2c(c1)-c1c(c(C(=O)N3CCOCC3)nn1-c1ccccc1)CS2(=O)=O [Example 100, N-[3-(Morpholin-4-ylcarbonyl)-5,5-dioxido-1-phenyl-1,4-dihydrothiochromeno[4,3-c]pyrazol-8-yl]acetamide] | 876
Cc1nc(-c2cccc(-n3nc(C(=O)N4CCOCC4)c4c3-c3ccccc3S(=O)(=O)C4)c2)n[nH]1 [Example 200, 1-[3-(5-Methyl-1H-1,2,4-triazol-3-yl)phenyl]-3-(morpholin-4-ylcarbonyl)-1,4-dihydrothiochromeno[4,3-c]pyrazole 5,5-dioxide] | 4860
COC1CN(Cc2ccc(-n3nc(C(=O)N4CCOCC4)c4c3-c3ccccc3S(=O)(=O)C4)cc2)C1 [Example 272, 1-{4-[(3-Methoxyazetidin-1-yl)methyl]phenyl}-3-(morpholin-4-ylcarbonyl)-1,4-dihydrothiochromeno[4,3-c]pyrazole 5,5-dioxide] | 165
CC(C)(CN1CCOCC1)c1ccc(-n2nc(C(=O)N3CCOCC3)c3c2-c2ccccc2S(=O)(=O)C3)cc1 [Example 461, 1-[4-(1,1-Dimethyl-2-morpholin-4-ylethyl)phenyl]-3-(morpholin-4-ylcarbonyl)-1,4-dihydrothiochromeno[4,3-c]pyrazole 5,5-dioxide] | 341
O=C(c1nn(-c2ccc(CNC3CCOCC3)cc2)c2c1CS(=O)(=O)c1ccccc1-2)N1CCOCC1 [Example 436, N-{4-[3-(Morpholin-4-ylcarbonyl)-5,5-dioxidothiochromeno[4,3-c]pyrazol-1 (4H)-yl]benzyl}tetrahydro-2H-pyran-4-amine] | 107
O=C(c1nn(-c2ccc(CNC3CCCOC3)cc2)c2c1CS(=O)(=O)c1ccccc1-2)N1CCOCC1 (stereo not drawn) [Example 455, N-{4-[3-(Morpholin-4-ylcarbonyl)-5,5-dioxidothiochromeno[4,3-c]pyrazol-1(4H)-yl]benzyl}tetrahydro-2H-pyran-3-amine] | 224
Nc1ncc(-c2cccc(-n3nc(C(=O)N4CCOCC4)c4c3-c3ccccc3S(=O)(=O)C4)c2)cn1 [Example 186, 5-{3-[3-(Morpholin-4-ylcarbonyl)-5,5-dioxidothiochromeno[4,3-c]pyrazol-1 (4H)-yl]phenyl}pyrimidin-2-amine] | 454
O=C(c1nn(C2CCCN(c3ccccc3)C2)c2c1CS(=O)(=O)c1ccccc1-2)N1CCOCC1 (stereo not drawn) [Example 218, 3-(Morpholin-4-ylcarbonyl)-1-(1-phenylpiperidin-3-yl)-1,4-dihydrothiochromeno[4,3-c]pyrazole 5,5-dioxide] | 468
O=C(c1nn(C2CCN(CCC3CCOCC3)C2)c2c1CS(=O)(=O)c1c(F)cccc1-2)N1CCOCC1 (stereo not drawn) [Example 302, 6-Fluoro-3-(morpholin-4-ylcarbonyl)-1-{1-[2-(tetrahydro-2H-pyran-4-yl)ethyl]pyrrolidin-3-yl}-1,4-dihydrothiochromeno[4,3-c]pyrazole 5,5-dioxide] | 21

Second part, the molecule after the results:

IC50 [nM] | Structure (SMILES)
1060 | O=C(c1nn(-c2ccc(CO)cc2)c2c1CS(=O)(=O)c1ccccc1-2)N1CCOCC1 [Example 153, {4-[3-(Morpholin-4-ylcarbonyl)-5,5-dioxidothiochromeno[4,3-c]pyrazol-1(4H)-yl]phenyl}methanol]
105 | CC(=O)NCCN1CCC[C@H](n2nc(C(=O)N3CCOCC3)c3c2-c2ccccc2S(=O)(=O)C3)C1 (stereo in doubt) [Example 444, N-(2-{3-[3-(morpholin-4-ylcarbonyl)-5,5-dioxidothiochromeno[4,3-c]pyrazol-1(4H)-yl]piperidin-1-yl}ethyl)acetamide]
445 | O=C(c1nn(-c2cccc(OCCn3cccn3)c2)c2c1CS(=O)(=O)c1ccccc1-2)N1CCOCC1 [Example 340, 3-(Morpholin-4-ylcarbonyl)-1-{3-[2-(1H-pyrazol-1-yl)ethoxy]phenyl}-1,4-dihydrothiochromeno[4,3-c]pyrazole 5,5-dioxide]
2000 | O=C(c1nn(-c2ccccc2F)c2c1CS(=O)(=O)c1ccccc1-2)N1CCOCC1 [Example 21, 1-(2-fluorophenyl)-3-(morpholin-4-ylcarbonyl)-1,4-dihydrothiochromeno[4,3-c]pyrazole 5,5-dioxide]
438 | COCCCN1CCCC(n2nc(C(=O)N3CCOCC3)c3c2-c2ccccc2S(=O)(=O)C3)CC1 (stereo not drawn) [Example 258, 1-[1-(3-Methoxypropyl)azepan-4-yl]-3-(morpholin-4-ylcarbonyl)-1,4-dihydrothiochromeno[4,3-c]pyrazole 5,5-dioxide]
1540 | CC(C)(C)OC(=O)N1CCCC(n2nc(C(=O)N3CCOCC3)c3c2-c2ccccc2S(=O)(=O)C3)C1 (stereo not drawn) [Example 120]
14 | O=C(c1nn([C@H]2CCCN(CCN3CC[C@@H](F)C3)C2)c2c1CS(=O)(=O)c1ccccc1-2)N1CCOCC1 (single isomer, unassigned) [Example 364, 1-(1-{2-[3-fluoropyrrolidin-1-yl]ethyl}piperidin-3-yl)-3-(morpholin-4-ylcarbonyl)-1,4-dihydrothiochromeno[4,3-c]pyrazole 5,5-dioxide]
795 | O=C(c1nn(CCN2CCOCC2)c2c1CS(=O)(=O)c1ccccc1-2)N1CCOCC1 [Example 72, 3-(Morpholin-4-ylcarbonyl)-1-(2-morpholin-4-ylethyl)-1,4-dihydrothiochromeno[4,3-c]pyrazole 5,5-dioxide]
4950 | O=C(c1nn(-c2cccc(N3CCCC3)c2)c2c1CS(=O)(=O)c1ccccc1-2)N1CCOCC1 [Example 181, 3-(Morpholin-4-ylcarbonyl)-1-(3-pyrrolidin-1-ylphenyl)-1,4-dihydrothiochromeno[4,3-c]pyrazole 5,5-dioxide]
624 | O=C(c1nn(Cc2cc(Cl)cs2)c2c1CS(=O)(=O)c1ccccc1-2)N1CCOCC1 [Example 240, 1-[(4-Chloro-2-thienyl)methyl]-3-(morpholin-4-ylcarbonyl)-1,4-dihydrothiochromeno[4,3-c]pyrazole 5,5-dioxide]
444 | O=C(c1nn([C@@H]2CCCN(CCn3ccnc3)C2)c2c1CS(=O)(=O)c1ccccc1-2)N1CCOCC1 (single isomer, unassigned) [Example 411, 1-{1-[2-(1H-imidazol-1-yl)ethyl]piperidin-3-yl}-3-(morpholin-4-ylcarbonyl)-1,4-dihydrothiochromeno[4,3-c]pyrazole 5,5-dioxide]
9070 | O=C(c1nn(-c2ccccc2)c2c1CS(=O)(=O)c1ccccc1-2)N1CCCOCC1 [Example 334, 3-(1,4-Oxazepan-4-ylcarbonyl)-1-phenyl-1,4-dihydrothiochromeno[4,3-c]pyrazole 5,5-dioxide]
7960 | CC1CC(C)CC(n2nc(C(=O)N3CCOCC3)c3c2-c2ccccc2S(=O)(=O)C3)C1 (stereo not drawn) [Example 321]
2250 | O=C(c1nn(CCCO)c2c1CS(=O)(=O)c1ccccc1-2)N1CCOCC1 [Example 54, 3-[3-(morpholin-4-ylcarbonyl)-5,5-dioxidothiochromeno[4,3-c]pyrazol-1(4H)-yl]propan-1-ol]
2200 | O=C(c1nn([C@@H]2CCCN(CCC3CCOCC3)C2)c2c1CS(=O)(=O)c1ccccc1-2)N1CCOCC1 (single isomer, unassigned) [Example 307, 3-(morpholin-4-ylcarbonyl)-1-{1-[2-(tetrahydro-2H-pyran-4-yl)ethyl]piperidin-3-yl}-1,4-dihydrothiochromeno[4,3-c]pyrazole 5,5-dioxide]
52 | O=C(c1nn(C2CCCN(CCn3ccnc3)C2)c2c1CS(=O)(=O)c1ccccc1-2)N1CCOCC1 (stereo not drawn) [Example 297, 1-{1-[2-(1H-Imidazol-1-yl)ethyl]piperidin-3-yl}-3-(morpholin-4-ylcarbonyl)-1,4-dihydrothiochromeno[4,3-c]pyrazole 5,5-dioxide]

Same assay, conditions: inhibition at 20 μM

Structure (SMILES) | Best potency measured on the 4 PI3K isoforms, % inh @20 μM [% inh @20 μM]
CC1CN(C(=O)c2nn(-c3ccccc3)c3c2CS(=O)(=O)c2ccccc2-3)CC(C)O1 (stereo not drawn) [Example 337] | 11
CC(C)CC1COCCN1C(=O)c1nn(-c2ccccc2)c2c1CS(=O)(=O)c1ccccc1-2 (stereo not drawn) [Example 332] | 15
